For data set [1] the following is noted: brufen side effects, source not stated; cited from earlier work.
For data set [2], the system named is erythrocyte aggregation reaction. Briefly: membrane-stabilizing effect: erythrocyte aggregation reaction caused by a gelatine solution, in vitro and in vivo. It is filed as cell-based.
The conditions of data set [3]: in vivo.
Data set [4] is described as follows: tests in adrenalectomized animals. Type of data set: in vivo.
Details of data set [5]: species or system human patients. To be noted: human, in vivo. The source says: On the basis of these experimental data, the preparation was used clinically for the treatment of patients with chronic polyarthritis accompanied by gastrointestinal pathology, namely duodenal ulcer in the stage of remission. […] In view of the above, and also in view of the new preparation's general good tolerance, it may be used in patients with accompanying diseases of the organs of the alimentary system, which are contraindications to the use of most of the antiinflammatory remedies.

A short description of data set [6]: acute toxicity in cats. It is filed as in vivo.
Details of data set [7]: species or system rabbits. To be noted: rabbit, in vivo.
Data set [8] is described as follows: yeast fever in rats. Type of data set: in vivo.
The nature of data set [9]: Aerosol-induced edema of paw in rats (subacute test), exudative process. It is filed as in vivo. The source says:
Aerosol-induced edeima of
ry paw in rats (subacute test)

Data set [10] is described as follows: embryotoxic effects in rats. It is filed as in vivo. From the text: The preparation was examined for possible embryotoxic effects in rats.
Data set [11] is described as follows: tail burning test in mice. The following applies: for reduction of the reaction to a thermal irritant: mice. It is filed as in vivo. As for the experimental part:
(§1) For example, the preparation introduced orally to mice in 10 and 20 mg/kg doses reduced the reaction of the mice to a thermal irritant by 47-75% an hour after administration. Acetylsalicylic acid in 40-300 mg/kg doses causes an effect equal to 37-87%.

A short description of data set [12]: acute toxicity in mice (oral, intraperitoneal). To be noted: for LD50: mouse, in vivo.
Data set [13] in a line: carrageenin and aerosol-induced inflammatory edema, acute tests in mice. Type of data set: in vivo. To be noted: single oral doses of 5 to 20 mg/kg.
Data set [14] is described as follows: tolerance on oral administration for 2 to 4 months. To be noted: rats, rabbits and dogs, doses equal to 5% of LD50, 30 and 70 times the human dose. Type of data set: in vivo. From the text:
These doses, which are conventionally therapeutic, and equal to 5% of the LD50 for these animals, exceeded 30 and 70 times the dose recommended for humans.

For data set [15] the following is noted: in vivo. This is another data set of the same source.
Data set [16] is described as follows: clinical trials, therapeutic effect. It is filed as in vivo, human patients. From the text: (§2) The course of treatment lasted 3 to 4 weeks. In individual cases, the preparation was given once daily for 1 to 5 days as a symptomatic remedy (analgesic and antipyretic).
The main group of the patients given a course of treatment (203 persons), had the following diseases: rheumatism (active phase, 1st-2nd degree, according to A. I. Nesterov's classification) affecting the joints and heart (primary and recurrent rheumocarditis, heart disease of rheumatic etiology with symptoms of cardiac decompensation, of the 1-2A degree)--76 patients; polyarthritis (rheumatoid, exacerbation of chronic infectious, acute infectious-allergic, metabolic)--89 patients; arthrosis, spondylosis, exacerbation of chronic interstitial pneumonia--9 patients.
(§3) The effectiveness of the preparation was assessed by changes in complaints, clinical observation results (temperature, sensation of pain, local manifestations of the inflammatory process) and laboratory examination data (changes patients' peripheral blood picture, albumin fractions, glycoproteins and sialic acids content in blood serum, examination of stools for occult blood before and after treatment, etc.).

A short description of data set [17]: comparison of activity with acetylsalicylic acid, all experimental studies. It is filed as in vivo. To be noted: Table 2.
Details of data set [18]: species or system human patients. The following applies: human, in vivo. As for the experimental part: as §2, §3
Clinicians hold the option that tolerance to the preparation is good.
The source holds these as a separate data set.

A short description of data set [19]: phenamine hyperthermia in mice. Type of data set: in vivo. From the text: | Phenamine hyperthermia in
The nature of data set [20]: carrageenin-induced inflammatory edema, comparison with literature data. It is filed as in vivo.
The nature of data set [21]: antibacterial action. The following applies: in contrast to brufen.
A short description of data set [22]: implanted sterile paper balls, granuloma weight in rats. Type of data set: in vivo. To be noted: 10 and 20 mg/kg. The procedure:
It was established in tests with rats with implanted sterile paper rolled into balls that 10 and 20 mg/kg doses of the preparation reduce the weight of the granulomas by 41-60% and, consequently, produce an inhibiting effect on proliferation processes during inflammation.

The subject of data set [23] is cells of the amnionic membrane. Type of data set: cell-based, human.
Data set [24] can be described thus: influence on organ functions and internal organs of animals. It is filed as in vivo.
Data set [25] can be described thus: comparison of analgesic ED50 values in three models (tail burning, writhing, electric current). It is filed as in vivo. The following applies: acetic acid writhing (mice), electric current (rats). As for the experimental part:
as §1

Data set [26] in a line: acetic acid "writhing" in mice. Type of data set: in vivo. To be noted: acetylsalicylic acid = 1. On the technique in general: Writhing tests count abdominal constrictions after an irritant is injected.
Data set [27] in a line: painful irritation of rat's paw with electric current. Type of data set: in vivo, rats. To be noted: acetylsalicylic acid = 1.
Data set [28] can be described thus: Aerosol-induced edema of paw in mice (acute test). Type of data set: in vivo. To be noted: acetylsalicylic acid = 1. The source says: Aerosol-induced edema of
paw in mice (acute test)

Data set [29] can be described thus: acute toxicity to anti-edematous action ratio (LD50/ED50) in mice. The following applies: oral administration, acetylsalicylic acid = 1. Type of data set: in vivo.
[30] abbreviates: rheumatic heart and joint disease.

Usually LD50 stands for the dose at which mortality reaches 50%. Higher therefore signals a less toxic substance.

Entries after “also recorded” stand apart in the source; their conditions may differ.

Consider `CC(C)Cc1ccc(C(C)C(=O)O)cc1` (centres unmarked) [Brufen], for which, in data set [1], the “abdominal pain and headaches” value is 11%; the allergic symptoms was 6-8%; the “dyspepsia, gastrointestinal hemorrhages, bronchospasm, thrombocytopenia, mental disorders, exacerbation of cholecystitis” value was 11-15%.

For the compound `OC(Nc1nccs1)C(Cl)(Cl)Cl` (centres unmarked) [proposed preparation, 2,2,2-trichloro-1-(2-thiazolylamino)-ethanol], the “membrane-stabilizing effect (erythrocyte aggregation reaction)” value in data set [2] was “mitigation of the erythrocyte aggregation reaction”. Further, the “harmful effect on the gastrointestinal mucosa” value in [3] is “no harmful effect on the gastrointestinal mucosa”. For the same compound, the “contribution of the adrenal system to antiinflammatory effect” value in [4] is given as “andrenal system contributes to the proposed preparation's antiinflammatory effect”. For the same compound, in [5], the “exacerbation of the ulcerous disease” value is recorded as “did not cause an exacerbation of the ulcerous disease” and the “fecal reaction to occult blood” value is listed as “negative in all the patients”. The picture of intoxication result in [6] (acute toxicity, doses in excess of 1 g/kg) is reported as “pronounced inhibition in the animals into a state similar to the prenarcotic state”. In addition, in [6] (cats), the “dose causing symptoms of intoxication and death” value is above 1000 mg/kg. The irritation of tissues result in [7] is recorded as “does not cause irritation”. Also, the “antipyretic effect compared with acetylsalicylic acid” value in [8] (rats with yeast fever, 100 mg/kg) is given as “corresponds to that produced by a 300 mg/kg dose of acetylsalicylic acid”. In addition, the “reduction of intensity of the exudative process” value in data set [9] (rats, 10 mg/kg, within 3 hours after administration) is on record as “reducing its intensity by half”. Also, the “effect on development of the rat embryos” value in data set [10] (55 mg/kg, 12 days from the 9th day of pregnancy) is “does not affect the development of the rat embryos”. Further, the “reduction of the reaction to a thermal irritant” value in data set [11] (oral, 10 and 20 mg/kg, an hour after administration) was 47-75%. Moreover, the “absorption from the gastrointestinal tract compared with acetylsalicylic acid” value in data set [12] (from enteral coefficient) is “better absorption of the preparation from the gastrointestinal tract”. The same compound registered an LD50 in data set [12] (ip) of 708 mg/kg. Besides, in data set [12] (po), the median lethal dose (LD50) was determined as 1050 mg/kg. The “reduction of the symptoms of exudation” value in data set [13] was 17-62%. The “tolerance on long oral administration” value in [14] is “well tolerated”. For the same compound, in data set [15], the “discomfort in the epigastral region” value is on record as 1.6 % of cases, the drug dermatitis stood at 2.4% and the “reversibility of side effects” value was “pass quickly once the preparation is discontinued”. For the same compound, the “patients with pronounced therapeutic effect, arthritis” value in data set [16] (arthritis of different etiology, 89 patients) is 68%. The “patients with similar therapeutic effect” value in [16] (arthrosis, spondylosis and exacerbation of chronic interstitial pneumonia) is 65%. The “number of patients with pronounced therapeutic effect, arthritis” value in data set [16] (out of 89) was 61. In addition, in data set [16] (out of the 76 patients), the “number of patients with pronounced therapeutic effect, rheumatic” value amounted to 61 patients. The “drop in temperature, time” value in [16] (patients) is “towards the end of the first week of therapy”. Also, the temperature after course result in [16] (patients, 3 to 4 week course) is “completely normalized”. Moreover, the “general status, physical activity, symptoms of local inflammation” value in data set [16] (patients, 4th to 9th day from beginning of treatment) was “improvement of the patient's general status, increasing physical activity, abatement of symptoms of local inflammation”. Also, in data set [16] (setting [30]), the ECG indices result is reported as “ECG indices improved: extrasystole disappeared, symptoms of myocardial anoxia diminished”; the “pain in the region of the heart” value is recorded as “abated”; the “paraclinical data: albumin content and gamma-fraction of the blood” value is “a marked tendency towards a higher albumin content and the normalization of the gamma-fraction of the blood”; the “paraclinical data: leukocytes, ESR” value is “disappearance of leukocytes drop of the ESR to normal”. Besides, the neurological status result in data set [16] (rheumatic patients) was “improvement of their neurological status was observed, manifested by diminishing asthenia and irritability”. Further, in data set [16] (rheumatic patients, 76 patients), the “patients with pronounced therapeutic effect, rheumatic” value was found to be 80%. For the same compound, in data set [17], the “activity compared with acetylsalicylic acid” value was “higher activity than acetylsalicylic acid; also recorded: superior to acetylsalicylic acid in all the main effects”. In addition, in [18], the contraindications entry is given as “No contraindications”; the “influence on peripheral blood composition” value was “no influence on the peripheral blood composition”; the leukocyte count result is “diminished to norm in leukocytosis and increased in leukopenia”; the tolerance entry is on record as “good”. Moreover, in [19] (mice, same dose (100 mg/kg) followed by phenamine), the phenamine hyperthermia result is recorded as “do not manifest the usual hyperthermia”. For the same compound, the “antiinflammatory activity compared with sodium salicylate, phenylbutazone, mephenamic acid (Ponstan) and brufen” value in data set [20] was “higher than that of sodium salicylate, phenylbutazone, mephenamic acid (Ponstan) and brufen”. For the same compound, the antibacterial action result in data set [21] is “moderately pronounced antibacterial action”. In addition, the “reduction of the weight of the granulomas” value in data set [22] is reported as 41-60%. Moreover, the “toxic effect on cells of the amnionic membrane” value in data set [23] was “nor does it have any toxic effect”. For the same compound, the “functions of the respiratory and cardiovascular systems” value in data set [24] is on record as “does not affect”. Also, in data set [25], the analgesic effect result is on record as “analgesic effect was proved by three methods”.

Turning to `CC(=O)Oc1ccccc1C(=O)O` [acetylsalicylic acid, reference compound], the “Relative activity, analgesic, acetic acid "writhing" in mice” value in [26] was found to be 1. In data set [8] (acetylsalicylic acid = 1), the “Relative activity, antipyretic, yeast fever in rats” value amounted to 1. For the same compound, the “Relative activity, antiinflammatory, aerosol-induced edema of paw in rats (subacute test)” value in data set [9] (acetylsalicylic acid = 1) is recorded as 1. Also, the “dose producing a similar effect, relative to the proposed preparation” value in data set [9] (rats, same test conditions, subacute) was found to be 30 times. For the same compound, the embryotoxic effect entry in data set [10] (parallel comparative tests) is on record as “produces an embryotoxic effect”. Moreover, the “Relative activity, analgesic, burning tail of mice” value in data set [11] (acetylsalicylic acid = 1) was 1. In data set [11] (40-300 mg/kg), the “reduction of the reaction to a thermal irritant” value is recorded as 37-87%. Further, the enteral coefficient in data set [12] (mice) was -1.8. In addition, the LD50 in data set [12] (ip) was found to be 1100 mg/kg; in data set [12] (po), 1910 mg/kg. Moreover, the “Relative activity, analgesic, painful irritation of rat's paw with electric current” value in data set [27] worked out at 1. The “Relative activity, antipyretic, phenamine hyperthermia in mice” value in [19] (acetylsalicylic acid = 1) is reported as 1. For the same compound, in data set [28], the “Relative activity, antiinflammatory, aerosol-induced edema of paw in mice (acute test)” value turned out to be 1. In addition, the “Relative therapeutic index, acute toxicity to anti-edematous action ratio (LD50/ED50)” value in data set [29] is reported as 1.

Source of the values: US4159334A, “Medicinal preparation with an antiinflammatory, analgesic and antipyretic effect” (priority 1977, dated 1979).
